Consider 103 molecules from PubChem BioAssay AID1996.

≈ marks a conversion by molar mass, not a printed value.

For the data set the following is noted: buffer; pH 7.4; 200.0 µM.
Molecule `CC(C)c1nc2oc3c(N(C)CCO)ncnc3c2c2c1CCC2` returned a kinetic solubility of 0.9 µg/mL (≈ 2.76 µM).

`CCN(c1ccccc1)S(=O)(=O)c1ccc(C(=O)NCc2ccco2)cc1`: the solubility (kinetic) was 32 µg/mL (≈ 83.2 µM). The value for `CCN(CC(=O)Nc1ccccc1OC)C(=O)CC1CC2CCC1C2` (stereo not drawn) was over 51.7 µg/mL; that for `Cc1ccc(C(=O)CCC(=O)Nc2ccccc2C)cc1C` was under 0.6 µg/mL; that for `CCOC(=O)N1CCC(NS(=O)(=O)c2ccccc2)CC1` was over 46.9 µg/mL. The value for `COC(=O)c1c(NC(C)=O)sc(C(=O)Nc2ccccc2)c1C` was 0.9 µg/mL (≈ 2.71 µM); that for `CCOC(=O)c1cc2c(ccn2C)n1Cc1ccccc1Cl` was under 0.3 µg/mL; that for `CCC(C)N(C)C1CCN(C(=S)Nc2cccc(SC)c2)CC1` (stereo not drawn) was over 52.7 µg/mL.

Take `O=[N+]([O-])c1cccc2ccc(N3CCOCC3)nc12`: the kinetic solubility amounted to 38.4 µg/mL (≈ 148 µM). The molecule `Cc1ccnc(N2CCCC(C(=O)NC3CC3)C2)n1` (stereo not drawn) yielded a solubility (kinetic) of 37.3 µg/mL (≈ 143 µM).

In turn, `Cc1ccc(S(=O)(=O)N2CCOCC2)cc1NC(=O)COC(=O)CCc1c[nH]c2ccccc12` gave a kinetic solubility of 26.4 µg/mL (≈ 54.4 µM). To `CC(C)(C)c1ccc(S(=O)(=O)Nc2noc3ccccc23)cc1` belongs over 49.6 µg/mL; to `Cc1nnc(Nc2ccccc2F)s1`, over 31.4 µg/mL; to `COC(=O)CNC(=O)COC(=O)Cc1ccc(Cl)cc1`, over 45 µg/mL.

In turn, `Cc1nc(SCc2ccc(O)c([N+](=O)[O-])c2)c([N+](=O)[O-])[nH]1` showed a kinetic solubility of over 46.5 µg/mL. To `CN(C)CCn1c(COc2ccccc2)nc2ccccc21.Cl.O` belongs over 60.7 µg/mL; to `COc1ccccc1NC(=O)COc1cccnc1[N+](=O)[O-]`, 4.3 µg/mL (≈ 14.2 µM). The value for `Cc1ccc(NC(=O)Nc2cccc(C)n2)cc1` was 0.8 µg/mL (≈ 3.32 µM); that for `COc1cc(CN2CCCCCC2)cc([N+](=O)[O-])c1O` was 35.6 µg/mL (≈ 127 µM). Turning to `COc1ccc(NC(=O)c2cc(-c3ccccc3Cl)on2)cc1`, the solubility (kinetic) was under 0.4 µg/mL. The value for `COc1ccc(NC(=S)NC2CCCCC2)c(OC)c1` was over 44.2 µg/mL. Regarding `O=C1CC2(CCN(C(=O)c3cccc(F)c3)CC2)Oc2ccccc21`, the kinetic solubility was over 50.9 µg/mL. `CCn1c(C)nc2cc(C(=O)OC)ccc21` showed a kinetic solubility of over 32.7 µg/mL. The value for `Cc1cc(=O)oc2cc(OCC(=O)Nc3nccs3)ccc12` was 4.1 µg/mL (≈ 13 µM).

Molecule `CCOc1ccccc1CN1C(=O)NC2(CCCCCC2)C1=O` returned a solubility (kinetic) of 46.6 µg/mL (≈ 147 µM).

`Nc1ncc([N+](=O)[O-])c(Oc2ccccc2F)n1` had a solubility (kinetic) of over 37.5 µg/mL.

`O=C(CN1CCN(Cc2ccccc2)CC1)NCCc1ccccc1` gave a kinetic solubility of 47.3 µg/mL (≈ 140 µM).

The molecule `CCOc1ccccc1C(=O)Nc1ccc2c(c1)C(=O)NC2=O` returned a kinetic solubility of under 0.3 µg/mL. The value for `COc1ccc(C(=O)CN2CCN(c3ccc(F)cc3)CC2)cc1` was 13 µg/mL (≈ 39.6 µM). The value for `O=C1CN(C(=O)COC(=O)Cc2ccccc2F)c2ccccc2N1` was over 51.3 µg/mL; that for `O=C(O)Cc1ccc(NCc2ccccc2Cl)cc1` was 28 µg/mL (≈ 102 µM); that for `Cc1ccc2[nH]cc(CCNS(=O)(=O)c3ccc(F)cc3)c2c1` was 23 µg/mL (≈ 69.2 µM). The value for `COc1cccc(NC(=O)C2CCOC2=O)c1` (stereo not drawn) was over 35.3 µg/mL.

For `O=C(COC(=O)c1cccnc1Cl)Nc1cccc(S(=O)(=O)N2CCOCC2)c1`, the solubility (kinetic) is over 66 µg/mL. To `CCN1CCN(Cc2cc(OC)c3c(c2)OCO3)CC1` belongs 33.9 µg/mL (≈ 122 µM); to `Cc1c(C(=O)Nc2ccc(Nc3ccccc3)cc2)cccc1[N+](=O)[O-]`, 1.3 µg/mL (≈ 3.74 µM); to `O/N=C/c1cc(Br)cs1`, 16.9 µg/mL (≈ 82 µM). To `CCOC(=O)c1c(N)sc2c1CCN(CCc1ccccc1)C2` belongs 31.7 µg/mL (≈ 95.9 µM); to `COC(=O)c1ccc(NC(=O)C(=O)c2c[nH]c3ccccc23)cc1`, under 0.3 µg/mL; to `COc1ccc(NC(=O)N2CCc3ccccc3C2)cc1`, 17.8 µg/mL (≈ 63 µM). `Nc1ccc(C(=O)OCc2ccncc2)cc1[N+](=O)[O-]` returned a kinetic solubility of 14 µg/mL (≈ 51.2 µM). The value for `O=[N+]([O-])c1ccc(N2CCCCC2)nc1N1CCCCC1` was 5.3 µg/mL (≈ 18.3 µM). To `CN1C=CC=C/C1=C1/N=C(c2ccccc2)OC1=O` belongs over 37.8 µg/mL; to `COc1ccc2c(C(=O)CN3CCSCC3)c[nH]c2c1`, 36.8 µg/mL (≈ 127 µM); to `O=C(c1ccc2c(c1)OCO2)N1CCc2ccccc21`, 34.9 µg/mL (≈ 131 µM).

Molecule `CSc1ncccc1C(=O)Nc1cc(Cl)ccc1N1CCOCC1` displayed a kinetic solubility of 4.4 µg/mL (≈ 12.1 µM). To `COc1ccccc1COC(=O)CN1C(=O)NC2(CCCCC2C)C1=O` (stereo not drawn) belongs over 54.1 µg/mL. To `Cc1noc(C)c1CN1C(=O)c2ccccc2C1=O` belongs 30.1 µg/mL (≈ 117 µM); to `COc1ccc2[nH]c(=O)c(C(=O)O)cc2c1`, over 32.9 µg/mL. The value for `Cc1ccc(C#N)c(SCCN2CCCCC2)n1` was 32.4 µg/mL (≈ 124 µM).

Molecule `O=C(O)c1ccc(NCc2ccc(Br)cc2)cc1` registered a solubility (kinetic) of over 45.9 µg/mL. The value for `Cc1ccc(C2CCN(C(=S)Nc3cccc(Cl)c3)C2)cc1` (stereo not drawn) was under 0.4 µg/mL; that for `CC(OC(=O)c1cccnc1Cl)C(=O)NCc1ccccc1` (stereo not drawn) was over 47.8 µg/mL. For `Cl.Oc1ccc(CCNc2c3ccccc3nc3ccccc23)cc1O`, the solubility (kinetic) is 44.7 µg/mL. With `COc1cccc2cc(C(=O)NCCc3ccccc3)oc12`, the kinetic solubility is 26.9 µg/mL (≈ 91.1 µM). On to `CCn1ncc(-c2csc(N)n2)c1C`, for which the solubility (kinetic) was over 31.2 µg/mL.

The molecule `O=C(NC1CCN(Cc2ccc3ccccc3c2)CC1)c1ccccc1` yielded a solubility (kinetic) of 2.8 µg/mL (≈ 8.13 µM). `O=C(NCc1ccco1)C(=O)NCC(c1ccco1)N1CCOCC1` (stereo not drawn) displayed a solubility (kinetic) of 47.2 µg/mL (≈ 136 µM).

In turn, `Cc1ccc(CNS(=O)(=O)c2ccc([N+](=O)[O-])cc2)cc1` returned a solubility (kinetic) of 1.8 µg/mL (≈ 5.88 µM).

Take `O=C(/C=C/c1ccccc1)NC(=O)c1ccccc1O`: the kinetic solubility was 1.4 µg/mL (≈ 5.24 µM). To `Cn1c(=O)c2cc3c(nc2n(C)c1=O)CC(c1ccccc1)CC3=O` (stereo not drawn) belongs 0.5 µg/mL (≈ 1.49 µM); to `COc1ccnc2c1c(=O)n(Cc1ccccc1Cl)c(=O)n2C`, 36 µg/mL (≈ 109 µM); to `O=S(=O)(CC(c1ccccc1)N1CCCCC1)c1ccc(Cl)cc1` (stereo not drawn), 4.2 µg/mL (≈ 11.5 µM). For the molecule `COc1ccc(CCNC(=O)Cc2ccc(C)cc2)cc1OC`, the kinetic solubility was over 47 µg/mL. With `CCCCCn1c(=O)c(C(=O)OCC)c(Cl)c2ccccc21`, the kinetic solubility turned out to be 6.5 µg/mL (≈ 20.2 µM). To `Cc1oc(-c2ccccc2)cc1C(=O)NC1CCN(Cc2ccccc2)CC1` belongs under 0.4 µg/mL; to `Cc1cc(C)cc(NC(=O)CCc2ccc(C)o2)c1`, 34.6 µg/mL (≈ 134 µM); to `COc1ccc(CCNC(=O)C(C)OC(=O)c2cccs2)cc1OC` (stereo not drawn), 49 µg/mL (≈ 135 µM). To `O=C(NCCCNC(=O)c1cnccn1)c1ccc(Cl)c(Cl)c1` belongs 41.4 µg/mL (≈ 117 µM). To `CC(C)c1ccc(OCC(O)CN2CCCC2)cc1.Cl` (stereo not drawn) belongs 43.8 µg/mL; to `O=C1CN(C(=O)COC(=O)c2c(F)cccc2Cl)c2ccccc2N1`, 50 µg/mL (≈ 138 µM). As for `Cc1cccc(NC(=O)c2cccnc2)c1C`, the solubility (kinetic) worked out at 24.1 µg/mL (≈ 107 µM).

In the case of `CC(C)COC(=O)n1c(SCC(N)=O)nc2ccccc21`, the solubility (kinetic) came out at 16.3 µg/mL (≈ 53 µM). To `O=C(Nc1ccncc1)C1CC(=O)N(c2ccc(F)cc2)C1` (stereo not drawn) belongs 39.3 µg/mL (≈ 131 µM); to `Nc1ccc(C2(c3ccc(N)cc3)CCCCC2)cc1`, 36 µg/mL (≈ 135 µM). Turning to `O=C(COC(=O)/C=C/c1ccc(F)cc1)NCc1cccs1`, the solubility (kinetic) was found to be 8.7 µg/mL (≈ 27.2 µM).

Turning to `COc1ccc(N2C(=O)NC(NC(=O)C(C)(C)C)(C(F)(F)F)C2=O)cc1` (stereo not drawn), the kinetic solubility was over 56 µg/mL. To `COc1ccccc1C(=O)NCCC(=O)N1CCCC(C(F)(F)F)C1` (stereo not drawn) belongs 52.3 µg/mL (≈ 146 µM); to `CN1CCN(C(=S)NC(=O)c2cccc([N+](=O)[O-])c2)CC1`, over 46.3 µg/mL; to `CC1CCc2c(sc3ncnc(SCC(=O)N(C)C4CCS(=O)(=O)C4)c23)C1` (stereo not drawn), 3.3 µg/mL (≈ 7.75 µM).

`CCN(c1ccccc1)S(=O)(=O)c1csc(C(N)=O)c1` yielded a solubility (kinetic) of 44.3 µg/mL (≈ 143 µM). The value for `COCCOc1ccc(C(F)(F)F)cc1NC(=O)CN1C(=O)NC2(CCCc3ccccc32)C1=O` (stereo not drawn) was 16.8 µg/mL (≈ 34.2 µM); that for `CC(=O)N1c2ccc(S(=O)(=O)N3CCCCC3)cc2CC1C` (stereo not drawn) was over 48.4 µg/mL; that for `Cc1ccc(C(=O)NCCNC(=O)COc2ccc(C)c(C)c2)cn1` was 49.2 µg/mL (≈ 144 µM).

As for `O=C(NCCCn1ccnc1)c1ccc2nccnc2c1`, the kinetic solubility was over 42.2 µg/mL. To `CN1C(=O)c2cccc3c(S(=O)(=O)NCCc4ccccc4)ccc1c23` belongs under 0.4 µg/mL; to `CCCc1cc(=O)[nH]c(SCC(=O)c2cc(C)n(CC3CCCO3)c2C)n1` (stereo not drawn), over 58.4 µg/mL. The value for `O=C(OCC(=O)N1CCCC1)c1c(Cl)ccc(Cl)c1Cl` was 39 µg/mL (≈ 116 µM); that for `CCOC(=O)c1cc(/C(C)=N/OC(=O)c2ccc(Cl)cc2)on1` was 0.6 µg/mL (≈ 1.78 µM). Take `CCOc1ccccc1NC(=O)CN1C(=O)COc2ccccc21`: the kinetic solubility came out at 3.6 µg/mL (≈ 11 µM). To `COc1ccc(-c2nc(NC(C)=O)sc2-c2ccccc2)cc1` belongs 4 µg/mL (≈ 12.3 µM). To `COc1ccccc1NC(=O)c1ccc(NC(=O)CN2CCCCC2)cc1.O=C(O)C(=O)O` belongs over 68.6 µg/mL. `CC(C(=O)NCc1ccccc1)N1CCN(c2ccc(F)cc2)CC1` (stereo not drawn) showed a kinetic solubility of over 51.2 µg/mL.

In the case of `CSc1ccc(Cl)c(C(=O)Nc2ccc(C)cn2)c1`, the solubility (kinetic) worked out at 4.8 µg/mL (≈ 16.4 µM).

With `COc1cccc(CN2CCN(C(=O)Cc3ccccc3OC)CC2)c1`, the solubility (kinetic) is over 53.2 µg/mL. The value for `Nc1cc(N)nc(SCC(=O)Nc2ccccc2N2CCOCC2)n1` was 49.6 µg/mL (≈ 138 µM).

`N/C(=N\OC(=O)C1CC1)c1ccc([N+](=O)[O-])s1` displayed a solubility (kinetic) of 26.4 µg/mL (≈ 103 µM). The value for `Nc1nc2ccc(C(=O)NCCOC(=O)C3CCCCC3)cc2s1` was 12.8 µg/mL (≈ 36.8 µM); that for `CN(C)c1cc(-c2ccc(Cl)cc2Cl)oc(=O)c1Cl` was 3.3 µg/mL (≈ 10.4 µM); that for `COc1cc2c(cc1OC)C(C)N(C(=O)Nc1cc(C)cc(C)c1)CC2` (stereo not drawn) was 2.7 µg/mL (≈ 7.62 µM).

For `CCOc1ccccc1NC(=O)c1ccc2c(c1)C(=O)N(CC)C2=O`, the solubility (kinetic) is under 0.4 µg/mL. In the case of `Cc1nc(-c2ccccc2)sc1C(=O)Nc1ccccc1F`, the solubility (kinetic) stood at 1.8 µg/mL (≈ 5.76 µM). Turning to `Cc1sc2nc(CSC(C)C(=O)N3CCOCC3)[nH]c(=O)c2c1C` (stereo not drawn), the solubility (kinetic) is over 55.1 µg/mL.
